Assay results published in ChEMBL document CHEMBL3351448, “Discovery of (7-aryl-1,5-naphthyridin-2-yl)ureas as dual inhibitors of ERK2 and Aurora B kinases with antiproliferative activity against cancer cells” (Bioorg Med Chem Lett, 2014).

How the values were obtained:
A549 = test: Antiproliferative activity against human A549 cells; format: functional, cell-based
[1] = molecular target: Homeodomain-interacting protein kinase 1 (Homo sapiens, UniProt Q86Z02); test: Inhibition of HIPK1 (unknown origin)
[2] = molecular target: Vascular endothelial growth factor receptor 2 (Homo sapiens, UniProt P35968); test: Inhibition of KDR (unknown origin)
[3] = molecular target: Tyrosine-protein kinase Yes (Homo sapiens, UniProt P07947); test: Inhibition of YES (unknown origin)
[4] = molecular target: High affinity nerve growth factor receptor (Homo sapiens, UniProt P04629); test: Inhibition of TrkA (unknown origin)
[5] = Antiproliferative activity against human PC3 cells; format: functional, cell-based; conditions: PC-3
MDA-MB-468 = test: Antiproliferative activity against human MDA-MB-468 cells; format: functional, cell-based
[6] = Antiproliferative activity against human U87MG cells; format: functional, cell-based, U-87MG ATCC; conditions: U-87 MG
[7] = molecular target: Tyrosine-protein kinase ABL1 (Homo sapiens, UniProt P00519); test: Inhibition of c-Abl (unknown origin)
[8] = Antiproliferative activity against human HCT116 cells; format: functional, cell-based; conditions: HCT-116
[9] = molecular target: Serine/threonine-protein kinase pim-1 (Homo sapiens, UniProt P11309); test: Inhibition of PIM1 (unknown origin)
[10] = Lipophilicity, logD of the compound at pH 7.4 by RP-HPLC method based chromatographic hydrophobicity index determination; format: physicochemical; conditions: buffer
[11] = Solubility in PBS buffer at pH 7.4 in presence of 1% BSA; format: physicochemical; conditions: PBS buffer with 1% BSA
[12] = Stability in mouse liver microsomes assessed as parent compound remaining after 1 hr; format: ADME; conditions: read-out: Stability
[13] = Chromatographic hydrophobicity index, CHI of the compound by RP-HPLC method; format: physicochemical
[14] = molecular target: Mitogen-activated protein kinase 1 (Homo sapiens, UniProt P28482); test: Inhibition of ERK2 (unknown origin)
[15] = Stability in mouse plasma assessed as parent compound remaining after 6 hrs; format: ADME, cell-free; conditions: read-out: Stability
[16] = Efflux ratio in human Caco2 cells in presence of 1% BSA; format: ADME, cell-based; conditions: Caco-2
[17] = Permeability from apical to basolateral side in human Caco2 cells in presence of 1% BSA; format: ADME, cell-based; conditions: Caco-2, read-out: permeability
Cytochrome P450 3A4 = Cytochrome P450 3A4 (Homo sapiens, UniProt P08684); test: Inhibition of CYP3A4 (unknown origin); format: ADME
[18] = Permeability from basolateral to apical side in human Caco2 cells in presence of 1% BSA; format: ADME, cell-based; conditions: Caco-2, read-out: permeability
[19] = molecular target: Voltage-gated inwardly rectifying potassium channel KCNH2 (Homo sapiens, UniProt Q12809); test: Binding affinity to human ERG

Chain of Homeodomain-interacting protein kinase 1 (Q86Z02 whole entry): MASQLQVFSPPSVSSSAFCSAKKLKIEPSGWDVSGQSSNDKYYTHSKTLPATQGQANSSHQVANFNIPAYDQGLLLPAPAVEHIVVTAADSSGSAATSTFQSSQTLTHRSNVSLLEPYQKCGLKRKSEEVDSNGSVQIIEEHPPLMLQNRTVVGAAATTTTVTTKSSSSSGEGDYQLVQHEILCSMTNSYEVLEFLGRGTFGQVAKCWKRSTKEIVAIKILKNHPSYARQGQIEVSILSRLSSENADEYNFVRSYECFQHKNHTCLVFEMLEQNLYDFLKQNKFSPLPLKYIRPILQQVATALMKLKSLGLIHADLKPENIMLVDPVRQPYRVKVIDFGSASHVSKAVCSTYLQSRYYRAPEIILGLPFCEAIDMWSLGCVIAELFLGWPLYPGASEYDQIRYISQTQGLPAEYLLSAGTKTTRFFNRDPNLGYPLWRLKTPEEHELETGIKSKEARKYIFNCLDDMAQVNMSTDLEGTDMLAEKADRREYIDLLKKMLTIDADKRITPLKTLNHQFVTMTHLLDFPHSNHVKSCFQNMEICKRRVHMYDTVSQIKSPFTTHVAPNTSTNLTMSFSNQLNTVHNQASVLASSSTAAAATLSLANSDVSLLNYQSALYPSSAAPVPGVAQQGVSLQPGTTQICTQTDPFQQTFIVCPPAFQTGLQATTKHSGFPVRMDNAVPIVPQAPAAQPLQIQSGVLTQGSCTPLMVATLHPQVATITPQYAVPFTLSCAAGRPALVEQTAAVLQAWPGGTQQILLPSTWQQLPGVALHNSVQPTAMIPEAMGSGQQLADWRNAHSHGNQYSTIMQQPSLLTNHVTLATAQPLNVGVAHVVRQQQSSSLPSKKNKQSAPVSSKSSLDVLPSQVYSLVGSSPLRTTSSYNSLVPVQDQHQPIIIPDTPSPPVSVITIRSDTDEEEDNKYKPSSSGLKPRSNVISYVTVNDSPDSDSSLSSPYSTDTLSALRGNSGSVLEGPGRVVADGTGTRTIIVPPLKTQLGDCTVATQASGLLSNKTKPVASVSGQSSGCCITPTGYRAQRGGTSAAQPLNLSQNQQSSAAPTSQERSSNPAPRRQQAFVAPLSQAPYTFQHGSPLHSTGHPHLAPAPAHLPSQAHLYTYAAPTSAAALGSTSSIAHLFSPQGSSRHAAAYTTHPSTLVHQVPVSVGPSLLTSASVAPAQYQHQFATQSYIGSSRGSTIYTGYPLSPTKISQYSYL
Chain of Tyrosine-protein kinase Yes (P07947 whole entry): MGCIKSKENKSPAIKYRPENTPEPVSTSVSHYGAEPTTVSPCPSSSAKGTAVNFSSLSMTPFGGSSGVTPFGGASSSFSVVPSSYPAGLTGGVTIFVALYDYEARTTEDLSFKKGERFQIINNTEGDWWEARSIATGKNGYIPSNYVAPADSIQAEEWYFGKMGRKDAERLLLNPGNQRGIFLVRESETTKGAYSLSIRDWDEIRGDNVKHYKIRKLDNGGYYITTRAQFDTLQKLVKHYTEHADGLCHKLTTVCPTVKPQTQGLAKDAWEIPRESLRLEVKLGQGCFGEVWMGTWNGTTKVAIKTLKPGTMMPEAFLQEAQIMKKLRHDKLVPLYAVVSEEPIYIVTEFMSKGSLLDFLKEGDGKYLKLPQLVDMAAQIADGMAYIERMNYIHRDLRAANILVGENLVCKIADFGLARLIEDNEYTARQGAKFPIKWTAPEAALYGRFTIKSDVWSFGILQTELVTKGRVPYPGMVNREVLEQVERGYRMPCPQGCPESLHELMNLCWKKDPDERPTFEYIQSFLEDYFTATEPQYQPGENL
Chain of Tyrosine-protein kinase ABL1 (P00519 whole entry): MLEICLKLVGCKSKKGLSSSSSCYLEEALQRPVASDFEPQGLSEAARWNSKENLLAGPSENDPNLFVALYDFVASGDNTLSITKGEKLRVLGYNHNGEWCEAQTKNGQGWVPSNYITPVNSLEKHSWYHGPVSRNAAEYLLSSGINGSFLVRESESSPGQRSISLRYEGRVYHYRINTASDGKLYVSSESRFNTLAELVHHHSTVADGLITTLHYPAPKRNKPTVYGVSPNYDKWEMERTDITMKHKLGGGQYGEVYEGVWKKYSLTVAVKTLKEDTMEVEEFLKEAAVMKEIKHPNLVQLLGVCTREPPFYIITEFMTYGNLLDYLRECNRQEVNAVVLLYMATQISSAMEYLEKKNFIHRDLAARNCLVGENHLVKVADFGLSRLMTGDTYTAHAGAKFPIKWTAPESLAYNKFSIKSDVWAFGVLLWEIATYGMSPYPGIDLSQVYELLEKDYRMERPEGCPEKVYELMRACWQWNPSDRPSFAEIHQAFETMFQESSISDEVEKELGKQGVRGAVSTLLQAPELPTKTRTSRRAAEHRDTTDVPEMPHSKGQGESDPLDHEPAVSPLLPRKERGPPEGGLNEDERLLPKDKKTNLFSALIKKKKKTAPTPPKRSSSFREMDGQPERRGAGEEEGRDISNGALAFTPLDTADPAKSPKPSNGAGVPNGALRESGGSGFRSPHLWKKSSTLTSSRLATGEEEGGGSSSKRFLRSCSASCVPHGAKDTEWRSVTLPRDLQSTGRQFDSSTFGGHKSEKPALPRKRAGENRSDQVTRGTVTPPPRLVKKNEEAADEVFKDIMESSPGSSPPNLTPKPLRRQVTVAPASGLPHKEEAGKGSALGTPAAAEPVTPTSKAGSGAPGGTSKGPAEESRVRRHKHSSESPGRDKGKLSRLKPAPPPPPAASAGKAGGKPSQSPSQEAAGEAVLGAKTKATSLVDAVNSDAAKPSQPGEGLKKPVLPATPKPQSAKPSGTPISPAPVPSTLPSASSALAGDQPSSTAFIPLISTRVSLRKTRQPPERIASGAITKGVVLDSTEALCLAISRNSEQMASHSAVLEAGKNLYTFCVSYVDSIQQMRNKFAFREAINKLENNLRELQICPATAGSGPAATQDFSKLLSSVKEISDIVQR
Chain of High affinity nerve growth factor receptor (P04629 whole entry): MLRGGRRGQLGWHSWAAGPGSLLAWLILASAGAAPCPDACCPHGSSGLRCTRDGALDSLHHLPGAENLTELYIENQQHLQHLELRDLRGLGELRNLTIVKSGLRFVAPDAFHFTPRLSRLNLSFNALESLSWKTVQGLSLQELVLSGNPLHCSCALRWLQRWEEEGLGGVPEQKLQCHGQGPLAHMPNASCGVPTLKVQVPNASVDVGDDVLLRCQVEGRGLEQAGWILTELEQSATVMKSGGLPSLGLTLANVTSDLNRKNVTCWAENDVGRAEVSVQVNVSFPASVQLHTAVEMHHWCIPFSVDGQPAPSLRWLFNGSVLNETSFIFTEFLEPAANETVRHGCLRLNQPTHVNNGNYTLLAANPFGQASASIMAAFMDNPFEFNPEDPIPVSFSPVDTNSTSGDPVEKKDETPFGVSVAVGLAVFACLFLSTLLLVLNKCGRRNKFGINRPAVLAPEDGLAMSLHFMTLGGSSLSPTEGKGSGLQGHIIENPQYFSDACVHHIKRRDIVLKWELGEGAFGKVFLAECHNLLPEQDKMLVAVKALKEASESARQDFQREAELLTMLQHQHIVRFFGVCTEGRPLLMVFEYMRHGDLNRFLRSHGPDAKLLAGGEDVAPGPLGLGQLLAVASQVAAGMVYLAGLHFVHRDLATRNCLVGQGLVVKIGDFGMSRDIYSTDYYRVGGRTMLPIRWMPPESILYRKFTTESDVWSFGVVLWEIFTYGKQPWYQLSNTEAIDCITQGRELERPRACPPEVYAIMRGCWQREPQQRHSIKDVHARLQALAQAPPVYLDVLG
Chain of Vascular endothelial growth factor receptor 2 (P35968 whole entry): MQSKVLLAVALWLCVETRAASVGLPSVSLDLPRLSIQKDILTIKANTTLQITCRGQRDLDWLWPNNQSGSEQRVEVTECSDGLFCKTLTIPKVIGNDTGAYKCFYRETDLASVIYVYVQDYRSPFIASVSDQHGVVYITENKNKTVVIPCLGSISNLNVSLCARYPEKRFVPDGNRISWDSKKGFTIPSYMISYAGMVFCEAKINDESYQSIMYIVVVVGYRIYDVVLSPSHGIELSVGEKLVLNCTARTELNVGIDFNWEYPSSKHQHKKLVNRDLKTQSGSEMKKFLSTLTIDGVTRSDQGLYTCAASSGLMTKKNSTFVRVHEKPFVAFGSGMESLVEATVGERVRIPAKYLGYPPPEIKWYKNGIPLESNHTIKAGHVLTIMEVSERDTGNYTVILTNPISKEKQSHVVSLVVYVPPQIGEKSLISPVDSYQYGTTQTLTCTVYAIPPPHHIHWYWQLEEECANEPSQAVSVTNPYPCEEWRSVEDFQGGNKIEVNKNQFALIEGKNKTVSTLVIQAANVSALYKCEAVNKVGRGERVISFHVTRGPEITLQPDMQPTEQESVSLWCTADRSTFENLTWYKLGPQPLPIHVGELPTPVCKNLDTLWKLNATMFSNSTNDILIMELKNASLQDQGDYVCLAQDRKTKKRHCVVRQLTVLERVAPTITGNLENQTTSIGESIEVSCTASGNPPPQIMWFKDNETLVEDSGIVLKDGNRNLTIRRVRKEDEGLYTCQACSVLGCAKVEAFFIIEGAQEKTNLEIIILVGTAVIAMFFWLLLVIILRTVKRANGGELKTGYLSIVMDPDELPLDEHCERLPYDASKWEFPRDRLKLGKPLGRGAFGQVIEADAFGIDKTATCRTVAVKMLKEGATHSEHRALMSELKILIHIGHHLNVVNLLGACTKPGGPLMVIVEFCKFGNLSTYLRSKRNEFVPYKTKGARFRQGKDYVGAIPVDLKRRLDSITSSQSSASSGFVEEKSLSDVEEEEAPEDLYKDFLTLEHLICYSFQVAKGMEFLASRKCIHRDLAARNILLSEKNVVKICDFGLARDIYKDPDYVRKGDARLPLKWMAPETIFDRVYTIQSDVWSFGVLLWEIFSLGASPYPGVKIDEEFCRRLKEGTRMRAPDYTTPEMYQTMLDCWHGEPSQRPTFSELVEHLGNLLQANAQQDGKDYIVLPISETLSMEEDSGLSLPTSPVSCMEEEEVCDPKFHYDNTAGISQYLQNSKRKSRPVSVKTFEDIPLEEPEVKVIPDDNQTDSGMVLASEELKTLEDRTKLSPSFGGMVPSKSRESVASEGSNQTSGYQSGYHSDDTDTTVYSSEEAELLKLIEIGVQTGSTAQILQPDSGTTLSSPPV

Row | IC50 (A549) [µM] | IC50 [1] [µM] | IC50 [2] [µM] | IC50 [3] [µM] | IC50 [4] [µM] | IC50 (MDA-MB-468) [µM] | IC50 [7] [µM] | IC50 [9] [µM] | chromatographic logD [10] | solubility [11] [µM] | remaining at 1 h [12] [%] | CHI [13] | SMILES | IC50 [5] [µM] | IC50 [6] [µM] | IC50 [8] [µM] | other results
1 | > 50 | > 100 | > 100 | > 100 | > 100 | > 50 | 20.8 | 37.1 |  |  |  |  | CCNC(=O)Nc1ccc2ncc(-c3ccc(OC)cc3)cc2n1 | > 50 | > 50 | 15.9 | 
2 | > 50 | 13.6 | > 100 | 41.8 | > 100 | 21.9 | > 100 | > 100 | 2.4 | 5.7 | 45.4 | 73.3 | CCNC(=O)Nc1ccc2ncc(-c3ccc(OC)c(OC)c3)cc2n1 | > 50 | > 50 | 4.36 | 
3 | 3.08 | > 100 | > 100 | > 100 | > 100 | 1.31 | > 100 | > 31.6 | 2.4 |  |  | 73.3 | Cn1cc(-c2cnc3ccc(NC(=O)Nc4ccccc4)nc3c2)cn1 | 1.37 | > 50 | 1.38 | 
4 | 14.2 | > 100 | > 100 | 42.9 | 80.6 | 3.89 | > 100 | > 100 | 2.7 |  |  | 79.3 | COc1cc(-c2cnc3ccc(NC(=O)NC(C)(C)C)nc3c2)ccc1O | 4.91 | 9.68 | 4.59 | 
5 |  |  |  |  |  |  |  |  |  |  |  |  | Cn1cc(-c2cnc3c(NC(=O)NC(C)(C)C)ccnc3c2)cn1 |  |  |  | IC50 [14]: 31.6 µM
6 |  | > 100 | > 100 | 26.9 | 12.7 | 1.8 | > 100 | 32.5 | 2.3 | 3.9 | 81.1 | 71.6 | Cn1cc(-c2cnc3ccc(NC(=O)NCCc4ccccc4)nc3c2)cn1 |  | > 50 | 1.2 | remaining at 6 h [15]: 96.7%; efflux ratio [16]: 0.45; Papp A→B [17]: 64 ×10⁻⁶ cm/s; INH (Cytochrome P450 3A4): > 100 µM; Papp B→A [18]: 29 ×10⁻⁶ cm/s; INH [19]: > 60 µM
7 | 1 | > 100 | > 100 | 7.95 | 4.5 | 1.96 | 6.05 | > 100 | 2.5 |  |  | 76.1 | Cn1cc(-c2cnc3ccc(NC(=O)NC(C)(C)C)nc3c2)cn1 | 0.671 | > 50 | 0.651 | 
8 | > 50 | > 100 | > 100 | 85.5 | > 100 | > 50 | > 100 | > 100 | 3.2 | 8.5 | 70.4 | 88.8 | COc1ccc(-c2cnc3ccc(NC(=O)NC(C)(C)C)nc3c2)cc1OC | > 50 | > 50 | > 50 | 
9 | > 50 | > 100 | > 100 | > 100 | > 100 | > 50 | > 100 | > 31.6 | 2.2 |  |  | 69.4 | Cn1cc(-c2cnc3ccc(NC(=O)NCc4ccccc4)nc3c2)cn1 | > 50 | > 50 | 0.191 | 
